Laboratory results reported in ChEMBL document CHEMBL5154769, “Discovery of the First-in-Class Agonist-Based SOS1 PROTACs Effective in Human Cancer Cells Harboring Various KRAS Mutations” (J Med Chem, 2022).
Active and inactive are the calls of the source. The rule behind the calls is not given here.

What was measured:
Mus musculus = test: In vivo inhibition of phosphorylated ERK level in BALB/c nude mouse xenografted with human NCI-H358 cells at 20 to 50 mg/kg, IT incubated for 21 days by immunohistochemistry analysis; type: functional, organism-based; conditions: dose 20-50 mg/kg, time 21.0 day
NCI-H358 [1] = test: Antitumor activity against human NCI-H358 cells xenografted in BALB/c nude mouse assessed as tumor growth inhibition at 20 mg/kg/day, ip incubated for 21 days; type: functional; conditions: NCI-H358, 504 h, time 21 day, read-out: TGI
NCI-H358 [2] = test: Effect of compound on human NCI-H358 cells assessed as increase in phophorylated ERK level at 1 uM incubated for 4 hr by Western blot analysis; type: functional, cell-based
[3] = biological target: T1, von Hippel-Lindau disease tumor suppressor/Son of sevenless homolog 2 (Homo sapiens) (UniProt P40337+Q07890); test: Protac activity at VHL/SOS2 in human NCI-H358 cells assessed as SOS2 mRNA level at 1 uM incubated for 24 to 72 hr by qRT PCR analysis; type: cell-based; conditions: time 24-72 hrs
T1 sequence (P40337 whole entry, looked up): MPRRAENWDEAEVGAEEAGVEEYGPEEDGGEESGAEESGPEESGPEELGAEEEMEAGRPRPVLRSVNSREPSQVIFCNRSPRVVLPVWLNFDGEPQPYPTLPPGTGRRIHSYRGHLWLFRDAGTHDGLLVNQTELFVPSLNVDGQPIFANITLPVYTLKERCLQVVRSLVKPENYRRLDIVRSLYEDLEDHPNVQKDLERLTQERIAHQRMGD
T1 sequence (Q07890 whole entry, looked up): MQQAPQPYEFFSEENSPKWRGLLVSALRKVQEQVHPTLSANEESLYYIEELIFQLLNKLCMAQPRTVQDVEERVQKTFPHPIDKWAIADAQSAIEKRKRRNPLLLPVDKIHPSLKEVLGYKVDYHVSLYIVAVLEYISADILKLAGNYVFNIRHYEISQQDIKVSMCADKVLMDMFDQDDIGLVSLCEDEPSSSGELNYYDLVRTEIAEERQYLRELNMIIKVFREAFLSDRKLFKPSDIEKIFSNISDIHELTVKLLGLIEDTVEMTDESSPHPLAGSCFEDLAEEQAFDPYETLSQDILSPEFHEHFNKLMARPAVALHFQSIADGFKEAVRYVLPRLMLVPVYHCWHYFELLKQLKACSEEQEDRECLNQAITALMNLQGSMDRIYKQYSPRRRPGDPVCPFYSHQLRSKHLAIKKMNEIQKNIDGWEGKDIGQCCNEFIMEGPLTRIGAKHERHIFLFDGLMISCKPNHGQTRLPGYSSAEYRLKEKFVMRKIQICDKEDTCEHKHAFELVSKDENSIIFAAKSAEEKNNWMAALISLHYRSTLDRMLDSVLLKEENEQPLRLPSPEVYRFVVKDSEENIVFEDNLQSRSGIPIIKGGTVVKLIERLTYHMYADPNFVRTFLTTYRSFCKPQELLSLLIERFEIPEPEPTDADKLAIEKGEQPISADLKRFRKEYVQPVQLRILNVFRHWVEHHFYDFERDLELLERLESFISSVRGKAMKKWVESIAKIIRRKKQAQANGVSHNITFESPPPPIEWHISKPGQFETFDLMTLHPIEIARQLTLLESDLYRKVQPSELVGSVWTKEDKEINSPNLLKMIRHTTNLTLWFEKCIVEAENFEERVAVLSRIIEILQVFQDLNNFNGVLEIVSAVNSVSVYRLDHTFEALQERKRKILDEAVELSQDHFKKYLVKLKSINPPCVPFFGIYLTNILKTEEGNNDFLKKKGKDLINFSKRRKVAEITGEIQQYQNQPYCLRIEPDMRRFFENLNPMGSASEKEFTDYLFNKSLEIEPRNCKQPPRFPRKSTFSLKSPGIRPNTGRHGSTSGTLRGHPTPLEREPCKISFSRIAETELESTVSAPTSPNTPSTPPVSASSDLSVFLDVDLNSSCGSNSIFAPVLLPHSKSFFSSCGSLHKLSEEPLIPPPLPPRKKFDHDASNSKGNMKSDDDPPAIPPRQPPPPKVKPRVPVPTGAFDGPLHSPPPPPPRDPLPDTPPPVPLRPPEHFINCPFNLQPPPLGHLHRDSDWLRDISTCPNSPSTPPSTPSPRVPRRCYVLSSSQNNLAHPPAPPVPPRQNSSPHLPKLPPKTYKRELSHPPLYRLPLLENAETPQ

[4] = AUClast in BALB/c mouse at 10 mg/kg, ip measured after 24 hrs by LC-MS/MS analysis; type: ADME, organism-based; parameters: dose 10 mg/kg, time 24 hrs, route ip; conditions: in vivo
NCI-H358 [5] = test: Effect of compound on human NCI-H358 cells assessed as decrease in phophorylated ERK level at 1 uM and measured after 6 to 24 hr by Western blot analysis; type: functional, cell-based; conditions: time 6-24 hrs
[6] = biological target: T2, von Hippel-Lindau disease tumor suppressor/Son of sevenless homolog 1 (Homo sapiens, UniProt Q07889+P40337); test: Protac activity at VHL/SOS1 in human NCI-H358 cells assessed as SOS1 protein degradation at 1 uM and measured after 4 to 24 hr by western blot analysis; type: cell-based; conditions: time 4-24 hrs
Target sequence in this assay (P40337 whole entry, looked up): as the sequence (P40337 whole entry, looked up) above
Target sequence in this assay (Q07889 whole entry, looked up): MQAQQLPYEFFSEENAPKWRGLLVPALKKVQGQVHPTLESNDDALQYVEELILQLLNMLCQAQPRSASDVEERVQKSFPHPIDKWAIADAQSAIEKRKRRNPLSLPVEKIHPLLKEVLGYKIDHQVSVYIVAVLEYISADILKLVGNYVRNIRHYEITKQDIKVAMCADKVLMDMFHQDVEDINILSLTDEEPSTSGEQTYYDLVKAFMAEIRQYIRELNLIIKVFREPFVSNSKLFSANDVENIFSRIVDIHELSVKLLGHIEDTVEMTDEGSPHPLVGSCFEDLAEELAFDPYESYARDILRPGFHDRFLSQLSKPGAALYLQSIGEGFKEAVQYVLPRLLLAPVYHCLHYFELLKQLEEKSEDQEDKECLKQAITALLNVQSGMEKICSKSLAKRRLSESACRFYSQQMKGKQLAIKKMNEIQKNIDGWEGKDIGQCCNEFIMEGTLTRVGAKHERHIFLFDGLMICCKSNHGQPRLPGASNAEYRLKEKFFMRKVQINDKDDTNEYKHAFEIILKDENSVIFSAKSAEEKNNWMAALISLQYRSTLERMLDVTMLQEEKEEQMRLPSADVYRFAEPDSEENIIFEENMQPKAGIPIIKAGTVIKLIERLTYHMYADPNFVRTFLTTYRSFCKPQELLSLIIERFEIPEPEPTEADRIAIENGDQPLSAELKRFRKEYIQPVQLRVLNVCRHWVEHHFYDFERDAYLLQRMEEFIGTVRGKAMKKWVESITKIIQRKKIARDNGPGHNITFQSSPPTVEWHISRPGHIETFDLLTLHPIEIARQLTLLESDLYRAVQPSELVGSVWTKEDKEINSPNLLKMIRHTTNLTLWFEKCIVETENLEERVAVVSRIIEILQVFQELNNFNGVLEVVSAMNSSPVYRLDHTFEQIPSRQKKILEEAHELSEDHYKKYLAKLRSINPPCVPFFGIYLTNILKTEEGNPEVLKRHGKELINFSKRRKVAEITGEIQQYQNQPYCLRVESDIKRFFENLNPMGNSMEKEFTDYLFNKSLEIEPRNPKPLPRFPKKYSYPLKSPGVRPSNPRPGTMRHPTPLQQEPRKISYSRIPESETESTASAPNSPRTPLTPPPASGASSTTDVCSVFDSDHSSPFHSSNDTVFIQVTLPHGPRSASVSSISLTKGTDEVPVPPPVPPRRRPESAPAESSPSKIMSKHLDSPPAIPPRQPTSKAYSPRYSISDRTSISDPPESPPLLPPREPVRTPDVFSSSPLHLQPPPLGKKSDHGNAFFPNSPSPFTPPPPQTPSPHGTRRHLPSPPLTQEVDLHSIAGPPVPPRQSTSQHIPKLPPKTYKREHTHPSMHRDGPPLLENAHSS

[7] = Tmax in BALB/c mouse at 10 mg/kg, ip measured after 24 hrs by LC-MS/MS analysis; type: ADME, organism-based; conditions: in vivo
Homo sapiens = organism: Homo sapiens; test: Binding affinity to SOS1/VCB E3 ligase (unknown origin) assessed as ternary complex formation by measuring hook effect incubated for 1 hr by HTRF assay
[8] = biological target: T1, von Hippel-Lindau disease tumor suppressor/Son of sevenless homolog 2 (Homo sapiens); test: Protac activity at VHL/SOS2 in human ASPC1 cells assessed as SOS2 mRNA level at 1 uM incubated for 24 to 72 hr by qRT PCR analysis; type: cell-based; conditions: time 24-72 hrs
[9] = biological target: T3, von Hippel-Lindau disease tumor suppressor/Son of sevenless homolog 1 (Homo sapiens, UniProt Q07889+P40337, G12D); test: Protac activity at VHL/SOS1 in human ASPC1 cells harboring KRAS G12D mutant assessed as SOS1 protein degradation incubated for 24 hr by Western blot analysis; type: cell-based
MIA PaCa-2 = test: Antiproliferative activity against human MIA PaCa-2 cells harboring KRAS G12C mutant assessed as cell growth inhibition incubated for 7 days by CellTiter-Glo 3D cell viability assay; type: functional, cell-based; conditions: MIA PaCa-2, 168 h
[10] = Observed AUC (infinity) in BALB/c mouse at 10 mg/kg, ip measured after 24 hrs by LC-MS/MS analysis; type: ADME, organism-based; parameters: dose 10 mg/kg, time 24 hrs, route ip; conditions: in vivo
A549 = test: Antiproliferative activity against human A549 cells harboring KRAS G12S mutant assessed as cell growth inhibition incubated for 7 days by CellTiter-Glo 3D cell viability assay; type: functional, cell-based; conditions: A549, 168 h
[11] = biological target: T2, von Hippel-Lindau disease tumor suppressor/Son of sevenless homolog 1; test: Protac activity at VHL/SOS1 in human NCI-H358 cells assessed as SOS1 protein degradation incubated for 24 hr by Western blot analysis; type: cell-based
[12] = Acute toxicity in BALB/c mouse assessed as change in body weight at 20 mg/kg, ip once daily for 7 days; type: organism-based; conditions: in vivo, 168 h, time 7 day
[13] = Acute toxicity in BALB/c mouse assessed as change in body weight at 10 mg/kg, ip once daily for 7 days; type: organism-based; conditions: in vivo, 168 h, time 7 day
[14] = Binding affinity to SOS1/VCB E3 ligase (unknown origin) assessed as ternary dissociation constant by surface plasmon resonance analysis; parameters: species or system Homo sapiens
[15] = biological target: T2, von Hippel-Lindau disease tumor suppressor/Son of sevenless homolog 1; test: Protac activity at VHL/SOS1 in human ASPC1 cells assessed as SOS1 protein degradation at 1 uM incubated measured after 16 hr by western blot analysis; type: cell-based
Target sequence in this assay (P40337 whole entry, looked up): as the sequence (P40337 whole entry, looked up) above
Target sequence in this assay (Q07889 whole entry, looked up): as the sequence (Q07889 whole entry, looked up) above

[16] = biological target: von Hippel-Lindau disease tumor suppressor/Son of sevenless homolog 1 (Homo sapiens, UniProt Q07889+P40337, G12R); test: Protac activity at VHL/SOS1 in human CAL-62 cells harboring KRAS G12R mutant assessed as SOS1 protein degradation incubated for 24 hr by Western blot analysis; type: cell-based
SW-620 = test: Antiproliferative activity against human SW620 cells harboring KRAS G12V mutant assessed as cell growth inhibition incubated for 7 days by CellTiter-Glo 3D cell viability assay; type: functional, cell-based; conditions: SW-620, 168 h
[17] = Cmax in BALB/c mouse at 10 mg/kg, ip measured after 24 hrs by LC-MS/MS analysis; type: ADME, organism-based; parameters: dose 10 mg/kg, time 24 hrs, route ip; conditions: in vivo
[18] = biological target: T4, von Hippel-Lindau disease tumor suppressor/Son of sevenless homolog 1 (Homo sapiens, UniProt Q07889+P40337, G12C); test: Protac activity at VHL/SOS1 in human NCI-H358 cells harboring KRAS G12C mutant assessed as SOS1 protein degradation incubated for 24 hr by Western blot analysis; type: cell-based
T4 sequence (P40337 whole entry, looked up, stated change not applied): as the sequence (P40337 whole entry, looked up) above
T4 sequence (Q07889 whole entry, looked up, stated change not applied): as the sequence (Q07889 whole entry, looked up) above

[19] = biological target: T4, von Hippel-Lindau disease tumor suppressor/Son of sevenless homolog 1; test: Protac activity at VHL/SOS1 in human MIA PaCa-2 cells harboring KRAS G12C mutant assessed as SOS1 protein degradation incubated for 24 hr by Western blot analysis; type: cell-based
[20] = biological target: T3, von Hippel-Lindau disease tumor suppressor/Son of sevenless homolog 1; test: Protac activity at VHL/SOS1 in human SK-LU-1 cells harboring KRAS G12D mutant assessed as SOS1 protein degradation incubated for 24 hr by Western blot analysis; type: cell-based
NCI-H358 [21] = test: Antitumor activity against human NCI-H358 cells xenografted in BALB/c nude mouse assessed as tumor growth inhibition at 10 mg/kg/day, ip incubated for 21 days; type: functional; conditions: NCI-H358, 504 h, time 21 day, read-out: TGI
[22] = Half life in BALB/c mouse at 10 mg/kg, ip measured after 24 hrs by LC-MS/MS analysis; type: ADME, organism-based; conditions: in vivo
[23] = Effect of compound on human ASPC1 cells harboring KRAS G12D mutant assessed as inhibition of ERK phosphorylation incubated for 24 hr by Western blot analysis; type: functional, cell-based; conditions: ASPC1, 24 h
[24] = biological target: T1, von Hippel-Lindau disease tumor suppressor/Son of sevenless homolog 2 (Homo sapiens); test: Protac activity at VHL/SOS2 in human NCI-H358 cells assessed as SOS2 protein degradation at 9.8 to 2500 nM incubated for 24 hr by Western blot analysis; type: cell-based; conditions: dose 9.8-2500 nM, DDE = dose-dependent effect
[25] = biological target: von Hippel-Lindau disease tumor suppressor/Son of sevenless homolog 1 (Homo sapiens, UniProt Q07889+P40337, G12V); test: Protac activity at VHL/SOS1 in human SW-620 cells harboring KRAS G12V mutant assessed as SOS1 protein degradation incubated for 24 hr by Western blot analysis; type: cell-based
[26] = biological target: von Hippel-Lindau disease tumor suppressor/Son of sevenless homolog 1/GTPase KRas (Homo sapiens) (UniProt Q07889+P01116+P40337); test: Protac activity at SOS1/KRAS E3 ligase in human NCI-H358 cells assessed as KRAS protein level at 2.5 uM measured after 24 hr by […] analysis; type: cell-based

Structure (SMILES): Cc1cc(Cn2c(N3CC4(CNC4)C3)nc3c(N4CCN(CCCCCCCCC(=O)N[C@H](C(=O)N5C[C@H](O)C[C@H]5C(=O)N[C@@H](C)c5ccc(-c6scnc6C)cc5)C(C)(C)C)CC4)cc(Cl)cc32)cc(C)c1F
- Activity (Mus musculus): Active
- inhibition in vivo at 20 mg/kg/day (NCI-H358 [1]): 86.1%
- Activity (NCI-H358 [2]): Active
- Activity [3]: Active
- AUC(0-t) at 24 h [4]: 3900 ng·h/mL
- Activity (NCI-H358 [5]): Active
- Activity [6]: Active
- Tmax [7]: 0.25 h
- Activity (Homo sapiens): Active
- Activity [8]: Active
- DC50 [9]: 119 nM
- IC50 (MIA PaCa-2): 218 nM
- AUC(0-inf) [10]: 4420 ng·h/mL
- IC50 (A549): 232 nM
- DC50 [11]: 98.4 nM
- Activity [12]: Non-Toxic
- Activity [13]: Non-Toxic
- Kd [14]: 3.7 nM
- Activity [15]: Active
- DC50 [16]: 126 nM
- IC50 (SW-620): 199 nM
- Cmax [17]: 1220 ng/mL
- DC50 [18]: 98 nM
- DC50 [19]: 255 nM
- DC50 [20]: 104 nM
- inhibition in vivo at 10 mg/kg/day (NCI-H358 [21]): 72.5%
- half-life [22]: 8.64 h
- IC50 [23]: 72.3 nM
- Activity [24]: Dde
- DC50 [25]: 125 nM
- Activity [26]: Active
